Assay results published in ChEMBL document CHEMBL1201862, “PubChem BioAssay data set” (2004).
Active and inactive are the calls of the source. Rule as the data show it, for most assays here: actives have a measured EC50 and inactives only a lower limit.

Molecular target: T1, Heat shock factor protein 1 (Mus musculus, UniProt P38532)
T1 sequence (P38532 whole entry): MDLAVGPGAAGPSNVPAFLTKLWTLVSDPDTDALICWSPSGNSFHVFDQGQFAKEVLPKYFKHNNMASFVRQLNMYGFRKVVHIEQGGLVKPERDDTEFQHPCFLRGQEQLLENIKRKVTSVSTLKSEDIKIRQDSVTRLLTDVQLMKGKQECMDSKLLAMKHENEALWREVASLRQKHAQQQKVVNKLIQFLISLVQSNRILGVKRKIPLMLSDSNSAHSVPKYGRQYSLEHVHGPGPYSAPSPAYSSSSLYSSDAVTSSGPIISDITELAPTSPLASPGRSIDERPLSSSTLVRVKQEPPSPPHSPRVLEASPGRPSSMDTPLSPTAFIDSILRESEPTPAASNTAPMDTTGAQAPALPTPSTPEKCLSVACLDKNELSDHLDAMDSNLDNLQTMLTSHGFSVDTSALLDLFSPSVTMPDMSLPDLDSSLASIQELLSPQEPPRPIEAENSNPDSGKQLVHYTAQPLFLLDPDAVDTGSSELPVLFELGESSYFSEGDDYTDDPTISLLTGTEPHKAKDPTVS
Assay: enhancement of HSF1-driven luciferase signal – cell-based, NIH3T3, luminescence, dose retest, confirmation (AID 435004);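 also: stress induced by proteasome inhibitor MG132 added 30 min after compound; luciferase reporter driven by HSF1 response element in NIH3T3 cells; actives raise luminescence as potentiators of the MG132 stress response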
Format: functional
Details: not given

SMILES | EC50
COCc1cc(CN2CCN(CCc3ccccc3)C(CCO)C2)ccc1OC (configuration not stated) | > 260 µM (inactive)
CCN(CC)c1ccc(/C=C2/C(=O)N(c3ccc([N+](=O)[O-])cc3)N=C2N2CCOCC2)cc1 | > 260 µM (inactive)
COc1ccc(OC)c(Nc2nc3ccc(C)cc3n3cnnc23)c1 | > 260 µM (inactive)
O=C(NCc1ccccn1)c1cc(-c2ccc(-c3ccccc3)cc2)nc2ccccc12 | 0.461 µM (active)
O=C(COC(=O)COc1cccc(Br)c1)Nc1c(Cl)cccc1Cl | > 260 µM (inactive)
CCN(C(=O)c1cc2c(O)nc3ccc(C)cc3c2s1)c1ccccc1F | > 260 µM (inactive)
Cc1ccc(C(=O)Cn2nnc(-c3ccccc3-n3cnnn3)n2)cc1 | > 260 µM (inactive)
O=C1CC(c2ccc(Cl)cc2)n2nc(NS(=O)(=O)c3ccc(F)cc3)nc2N1 (configuration not stated) | > 260 µM (inactive)
Cc1ccnc(NC(=O)c2cc3cc(F)ccc3s2)c1 | > 260 µM (inactive)
O=C(NCCc1nc2ccccc2[nH]1)/C(=C/c1ccc(F)cc1)NC(=O)c1ccco1 | > 260 µM (inactive)
CS/C(=N\C#N)N1CCN(c2ccc(Cl)cc2)CC1 | 129 µM (active)
Cc1ccc(C(NC(=O)/C=C\c2ccc3c(c2)OCO3)C(=O)Nc2ccc3c(c2)OCO3)cc1 (configuration not stated) | > 260 µM (inactive)
C/C(CC(=O)Nc1cccc2c1CCCC2)=N\NC(=O)COc1ccccc1 | > 260 µM (inactive)
COc1ccc(/C=C(\C#N)C(=O)Nc2cccc(C)n2)cc1 | 165 µM (active)
CN(C)C(CNC(=O)CCC(=O)c1ccc(Br)cc1)c1ccccc1 (configuration not stated) | > 260 µM (inactive)
Cc1cccc(C(=O)NNC(=O)CCn2nnc3ccccc32)c1 | > 260 µM (inactive)

Tested on: not listed separately
Assay: NIH3T3 cell viability loss – ATP luminescence, mouse fibroblasts, counter-screen, dose response (AID 2010);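 also: cells exposed to compound for about 90 hours before reading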
Format: functional, cell-based
Details: not given

SMILES | EC50
COCCN(Cc1c[nH]nc1-c1ccc2cc(OC)ccc2c1)C(C)C | > 60 µM (not active)
Cc1ccc(C(=O)NCCc2nc3ccccc3[nH]2)cc1[N+](=O)[O-] | > 60 µM (inconclusive)
O=C(N/N=C/c1ccc(-c2ccc(Br)cc2)o1)c1ccc2c(c1)OCO2 | > 60 µM (inconclusive)
COC(=O)CNC(c1ccccc1)c1cc(Br)ccc1NC(=O)CCN1CCOCC1 (configuration not stated) | > 60 µM (not active)
C=CCC(C(=O)OC)(C(=O)OC)c1ccc([N+](=O)[O-])cc1[N+](=O)[O-] | > 60 µM (not active)
CCCCOc1ccc(CSC2=NCCN2)cc1[N+](=O)[O-] | > 30 µM (not active)
COc1ccc(-c2nc(C#N)c(NCc3cccnc3)o2)cc1OC | > 60 µM (not active)
O=[N+]([O-])c1cc(Br)c(OCc2nnc(-c3ccccc3)o2)c(Br)c1 | > 60 µM (not active)
Cc1cc(Cn2ccnc2)c(C)cc1Cn1ccnc1 | > 60 µM (not active)
O=C(NCC1CCCN(Cc2ccc3nonc3c2)C1)c1cccc(C(F)(F)F)c1 (configuration not stated) | > 60 µM (not active)
O=C(Nc1cccc(S(=O)(=O)N2CCOCC2)c1)c1cn(-c2ccccc2)nc1-c1ccc(F)cc1 | > 60 µM (inconclusive)
CCOC(=O)c1c(NC(C)=O)sc2c(OCCN(CC)CC)c(Br)ccc12 | > 60 µM (not active)
COc1ccccc1C(=O)C1CCCN(Cc2c[nH]nc2C2CCCCC2)C1 (configuration not stated) | > 60 µM (not active)
CCC12CN3CC(CC)(CN(C1)C3c1ccc([N+](=O)[O-])o1)C2=O (configuration not stated) | > 30 µM (not active)

Molecular target: T1, Heat shock factor protein 1
Assay: decrease of HSF1-responsive luciferase luminescence – cell-based, NIH3T3, dose retest, confirmation (AID 2382);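 also: NIH3T3 fibroblasts with HSF1-driven luciferase reporter stressed by proteasome inhibitor MG132; luminescence from HSF1-driven luciferase expression after 8 hours of MG132 stress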
Format: functional
Details: not given

SMILES | EC50
Cc1ccc(-n2nc(C)c3cc(C(=O)O)sc32)cc1 | > 195 µM (not active)
C/C(=N\NC(=O)C(N)=O)c1ccc(O)cc1O | > 195 µM (not active)
Cn1c(N)c(C(=O)Nc2ccc(-c3ccccc3)cc2)sc1=S | > 195 µM (not active)
CCOc1ccc(/C=C2\SC(=O)N(CCNC(=O)C3COc4ccccc4O3)C2=O)cc1OC (configuration not stated) | > 195 µM (not active)
CC(/C=N\NC(=O)c1cc(C)oc1C)=C\c1ccccc1 | > 195 µM (not active)
O=C(c1ccc(-n2cncn2)c([N+](=O)[O-])c1)N1CCN(S(=O)(=O)c2ccccc2F)CC1 | > 195 µM (not active)
Cc1nc2c(cc1C(=O)N/N=C/c1ccc(O)c(O)c1)c(=O)n(C)c(=O)n2C | > 195 µM (not active)
CCc1cccc(NC(=O)C2CCCN(S(=O)(=O)c3cccs3)C2)c1 (configuration not stated) | > 195 µM (not active)
Cc1ccc(-n2nc3c(=O)n(CCCC(=O)N4CCC(C(N)=O)CC4)nc(C)c3c2C)cc1 | > 195 µM (not active)
O=[N+]([O-])c1ccc(Nc2ccc(F)cc2)cc1 | > 195 µM (not active)
O=C(Cc1ccccc1)Oc1ccccc1N1C(=O)CCC1=O | > 195 µM (not active)
CN(C)S(=O)(=O)N1CCN(C(=O)N2CCCCC2)CC1 | > 195 µM (not active)
Cc1ccc(OCC(=O)c2cc(C)n(-c3ccccc3)c2C)c([N+](=O)[O-])n1 | 0.623 µM (active)
Cc1c(Cl)cccc1NC(=O)Nc1cnccn1 | > 195 µM (not active)
CCOc1cc(CNCC2CCCN2CC)cc(Cl)c1OC (configuration not stated) | 63.1 µM (active)

Tested on: Streptococcus sp. 'group A'
Assay: Streptococcus pyogenes SK(-)GAS viability under kanamycin – luminescence, BacTiterGlo, confirmation, counter-screen for streptokinase expression inhibitor project, dose response (AID 1900)
Format: functional, organism-based
Details: not given

SMILES | EC50
COc1cc(OC)cc(C(=O)Nc2nc(-c3ccccc3)c(-c3ccccc3)o2)c1 | 0.617 µM (active)

Molecular target: Cytochrome P450 2D6 (Homo sapiens, UniProt P10635);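 also: CYP2D6 member of a cytochrome P450 panel assay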
Details: not given

Cytochrome P450 2D6, sequence (P10635 whole entry): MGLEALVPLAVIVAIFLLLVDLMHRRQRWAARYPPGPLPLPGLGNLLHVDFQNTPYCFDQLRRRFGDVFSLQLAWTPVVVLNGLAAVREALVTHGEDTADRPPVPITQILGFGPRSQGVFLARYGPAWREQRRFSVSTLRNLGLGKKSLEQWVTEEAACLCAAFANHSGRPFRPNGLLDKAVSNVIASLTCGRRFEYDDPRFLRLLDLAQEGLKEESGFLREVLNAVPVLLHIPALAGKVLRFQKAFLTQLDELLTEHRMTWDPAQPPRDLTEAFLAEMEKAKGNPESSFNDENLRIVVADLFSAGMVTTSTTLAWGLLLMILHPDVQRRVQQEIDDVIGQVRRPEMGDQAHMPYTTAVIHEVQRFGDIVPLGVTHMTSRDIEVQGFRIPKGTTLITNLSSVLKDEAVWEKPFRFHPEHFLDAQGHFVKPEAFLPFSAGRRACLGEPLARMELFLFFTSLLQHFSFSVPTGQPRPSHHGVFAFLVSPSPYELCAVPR

SMILES | AC50
COc1ccc(CNc2ncnc3ccc(-c4cccc(NS(C)(=O)=O)c4)cc23)c(OC)c1 | 10 µM (inconclusive)
CCn1c(N)nc2ccccc21 | 17.8 µM (inconclusive)
CCOC(=O)NNc1nncc2ccccc12 [TODRALAZINE] | 12.6 µM (inconclusive)
CCCC(=O)NCCc1c2n(c3ccc(OC)cc13)Cc1ccccc1-2 | 39.8 µM (inconclusive)
c1cn(-c2ncnc3ccc(-c4ccoc4)cc23)cn1 | 39.8 µM (inconclusive)
CCn1c2ccccc2c2cc(NS(=O)(=O)c3ccccc3C)ccc21 | 8.91 µM (inconclusive)
CCOC(=O)N1CCN(c2nc(-c3ccco3)cc(C(F)(F)F)n2)CC1 | 14.1 µM (inconclusive)

Tested on: Streptococcus
Assay: GAS UMAA2166 growth inhibition – luminescence, BacTiterGlo, counter-screen for streptokinase expression inhibitor project, dose response (AID 1915);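 also: potency for reduction of bacterial viability or growth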
Format: functional, organism-based
Details: not given

SMILES | EC50
COc1cc(OC)cc(C(=O)Nc2nc(-c3ccccc3)c(-c3ccccc3)o2)c1 | 1.34 µM (active)

Tested on: not listed separately
Assay: Trypanosoma cruzi growth suppression in host cells – NIH3T3 host cells, beta-gal luminescence, confirmation (AID 2044);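 also: intracellular parasites grown in NIH/3T3 mouse fibroblasts as host cells; luminescent beta-galactosidase reporter signal from transgenic T. cruzi replicating inside host cells; inhibitors lower the luminescence signal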
Format: functional, cell-based
Details: not given

SMILES | EC50
COCCN(Cc1c[nH]nc1-c1ccc2cc(OC)ccc2c1)C(C)C | 1.56 µM (active)
Cc1ccc(C(=O)NCCc2nc3ccccc3[nH]2)cc1[N+](=O)[O-] | 1.03 µM (active)
O=C(N/N=C/c1ccc(-c2ccc(Br)cc2)o1)c1ccc2c(c1)OCO2 | 1.47 µM (active)
COC(=O)CNC(c1ccccc1)c1cc(Br)ccc1NC(=O)CCN1CCOCC1 (configuration not stated) | 6.7 µM (active)
C=CCC(C(=O)OC)(C(=O)OC)c1ccc([N+](=O)[O-])cc1[N+](=O)[O-] | 2.42 µM (active)
CCCCOc1ccc(CSC2=NCCN2)cc1[N+](=O)[O-] | 0.46 µM (active)
COc1ccc(-c2nc(C#N)c(NCc3cccnc3)o2)cc1OC | 1.8 µM (active)
O=[N+]([O-])c1cc(Br)c(OCc2nnc(-c3ccccc3)o2)c(Br)c1 | 1.75 µM (active)
Cc1cc(Cn2ccnc2)c(C)cc1Cn1ccnc1 | 2.45 µM (active)
O=C(NCC1CCCN(Cc2ccc3nonc3c2)C1)c1cccc(C(F)(F)F)c1 (configuration not stated) | 0.771 µM (active)
O=C(Nc1cccc(S(=O)(=O)N2CCOCC2)c1)c1cn(-c2ccccc2)nc1-c1ccc(F)cc1 | 2.49 µM (active)
CCOC(=O)c1c(NC(C)=O)sc2c(OCCN(CC)CC)c(Br)ccc12 | 1.58 µM (active)
COc1ccccc1C(=O)C1CCCN(Cc2c[nH]nc2C2CCCCC2)C1 (configuration not stated) | 0.604 µM (active)
CCC12CN3CC(CC)(CN(C1)C3c1ccc([N+](=O)[O-])o1)C2=O (configuration not stated) | 0.85 µM (active)

Molecular target: T2, Corticotropin-releasing factor receptor 2/Corticotropin-releasing factor-binding protein (Homo sapiens, UniProt P24387+Q13324)
T2 sequence (Q13324 whole entry): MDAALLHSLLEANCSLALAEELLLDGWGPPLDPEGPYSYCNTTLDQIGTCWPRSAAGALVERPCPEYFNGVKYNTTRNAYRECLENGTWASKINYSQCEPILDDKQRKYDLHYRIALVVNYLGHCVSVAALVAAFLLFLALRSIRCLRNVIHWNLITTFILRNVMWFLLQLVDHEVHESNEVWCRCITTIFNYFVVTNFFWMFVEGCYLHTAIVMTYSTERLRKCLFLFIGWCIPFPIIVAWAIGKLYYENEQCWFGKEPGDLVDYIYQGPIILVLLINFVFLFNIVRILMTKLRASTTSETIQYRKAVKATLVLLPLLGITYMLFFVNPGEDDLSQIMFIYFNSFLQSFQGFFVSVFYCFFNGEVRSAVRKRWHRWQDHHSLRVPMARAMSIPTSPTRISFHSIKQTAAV
T2 sequence (P24387 whole entry): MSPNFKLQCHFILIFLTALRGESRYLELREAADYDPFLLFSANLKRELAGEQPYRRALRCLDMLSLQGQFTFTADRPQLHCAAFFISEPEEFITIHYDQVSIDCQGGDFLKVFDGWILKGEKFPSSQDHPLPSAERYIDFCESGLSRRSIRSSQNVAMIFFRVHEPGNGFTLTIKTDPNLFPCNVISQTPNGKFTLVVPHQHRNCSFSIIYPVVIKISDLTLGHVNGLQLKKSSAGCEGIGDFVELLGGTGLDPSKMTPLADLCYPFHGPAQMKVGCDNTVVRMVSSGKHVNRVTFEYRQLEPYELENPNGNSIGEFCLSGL
Assay: activators of CRF receptor 2 with binding protein – uHTS hits, confirmation (AID 602473)
Format: functional
Details: read-out: EC50_Mean

SMILES | EC50
O=S(=O)(NC1CCCCC1N1CCN(c2ccc(F)cc2)CC1)c1ccc(Cl)cc1 (configuration not stated) | 3.94 µM (active)
CCOc1ccc(NS(=O)(=O)c2ccc(C(=O)NCC(c3ccco3)N3CCCC3)cc2)cc1 (configuration not stated) | 6.17 µM (active)
CCN=C(S)NNC(=O)c1cccn(Cc2ccc(Cl)cc2Cl)c1=O | 7.26 µM (active)
COc1ccc(C(=O)C2=C(O)C(=O)N(CCN(C)C)C2c2cccnc2)cc1C (configuration not stated) | > 53 µM (inactive)
